# Laboratory results: ChEMBL document CHEMBL5303573, “Mapping human microbiome drug metabolism by gut bacteria and their genes” (Nature, 2019)
# Assay: The drug is tested on Alistipes indistinctus strain: DSM22520 for biotransformation. The drug concentrations were measured before and after a 12-h incubation by liquid-chromatography-coupled mass spectrometry (LC–MS)
# Conditions: 2 µM
row,Structure (SMILES),Bacterial Biotransformation
1,CC(=O)Nc1ccc(OC(C)=O)cc1 [DIACETAMATE],Compound metabolized
2,CCN(CC)CCOCCOC(=O)C1(c2ccccc2)CCCC1.O=C(O)CC(O)(CC(=O)O)C(=O)O [CARBETAPENTANE CITRATE],Compound metabolized
3,CC[C@@H](CO)NC(=O)[C@@H]1C=C2c3cccc4c3c(cn4C)C[C@H]2N(C)C1.O=C(O)/C=C\C(=O)O [METHYSERGIDE MALEATE],Compound metabolized

# Assay: The drug is tested on Bacteroides coprophilus strain: DSM18228 for biotransformation. The drug concentrations were measured before and after a 12-h incubation by liquid-chromatography-coupled mass spectrometry (LC–MS)
# Conditions: 2 µM
row,Structure (SMILES),Bacterial Biotransformation
1,CC(=O)Nc1ccc(OC(C)=O)cc1 [DIACETAMATE],Compound metabolized
2,CCN(CC)CCOCCOC(=O)C1(c2ccccc2)CCCC1.O=C(O)CC(O)(CC(=O)O)C(=O)O [CARBETAPENTANE CITRATE],Compound metabolized
3,CC[C@@H](CO)NC(=O)[C@@H]1C=C2c3cccc4c3c(cn4C)C[C@H]2N(C)C1.O=C(O)/C=C\C(=O)O [METHYSERGIDE MALEATE],Compound metabolized

# Assay: The drug is tested on Bacteroides dorei strain: DSM17855 for biotransformation. The drug concentrations were measured before and after a 12-h incubation by liquid-chromatography-coupled mass spectrometry (LC–MS)
# Conditions: phocaeicola dorei, 2 µM
row,Structure (SMILES),Bacterial Biotransformation
1,CC(=O)Nc1ccc(OC(C)=O)cc1 [DIACETAMATE],Compound metabolized
2,CCN(CC)CCOCCOC(=O)C1(c2ccccc2)CCCC1.O=C(O)CC(O)(CC(=O)O)C(=O)O [CARBETAPENTANE CITRATE],Compound metabolized
3,CC[C@@H](CO)NC(=O)[C@@H]1C=C2c3cccc4c3c(cn4C)C[C@H]2N(C)C1.O=C(O)/C=C\C(=O)O [METHYSERGIDE MALEATE],Compound metabolized

# Assay: The drug is tested on Bacteroides ovatus strain: ATCC8483 for biotransformation. The drug concentrations were measured before and after a 12-h incubation by liquid-chromatography-coupled mass spectrometry (LC–MS)
# Conditions: 2 µM
row,Structure (SMILES),Bacterial Biotransformation
1,CC(=O)Nc1ccc(OC(C)=O)cc1 [DIACETAMATE],Compound metabolized
2,CCN(CC)CCOCCOC(=O)C1(c2ccccc2)CCCC1.O=C(O)CC(O)(CC(=O)O)C(=O)O [CARBETAPENTANE CITRATE],Compound metabolized
3,CC[C@@H](CO)NC(=O)[C@@H]1C=C2c3cccc4c3c(cn4C)C[C@H]2N(C)C1.O=C(O)/C=C\C(=O)O [METHYSERGIDE MALEATE],Compound metabolized

# Assay: The drug is tested on Bacteroides pectinophilus strain: ATCC43243 for biotransformation. The drug concentrations were measured before and after a 12-h incubation by liquid-chromatography-coupled mass spectrometry (LC–MS)
# Conditions: 2 µM
row,Structure (SMILES),Bacterial Biotransformation
1,CC(=O)Nc1ccc(OC(C)=O)cc1 [DIACETAMATE],Compound metabolized
2,CCN(CC)CCOCCOC(=O)C1(c2ccccc2)CCCC1.O=C(O)CC(O)(CC(=O)O)C(=O)O [CARBETAPENTANE CITRATE],Compound metabolized
3,CC[C@@H](CO)NC(=O)[C@@H]1C=C2c3cccc4c3c(cn4C)C[C@H]2N(C)C1.O=C(O)/C=C\C(=O)O [METHYSERGIDE MALEATE],Compound metabolized

# Assay: The drug is tested on Bacteroides uniformis strain: ATCC8492 for biotransformation. The drug concentrations were measured before and after a 12-h incubation by liquid-chromatography-coupled mass spectrometry (LC–MS)
# Conditions: 2 µM
row,Structure (SMILES),Bacterial Biotransformation
1,CC(=O)Nc1ccc(OC(C)=O)cc1 [DIACETAMATE],Compound metabolized
2,CCN(CC)CCOCCOC(=O)C1(c2ccccc2)CCCC1.O=C(O)CC(O)(CC(=O)O)C(=O)O [CARBETAPENTANE CITRATE],Compound metabolized
3,CC[C@@H](CO)NC(=O)[C@@H]1C=C2c3cccc4c3c(cn4C)C[C@H]2N(C)C1.O=C(O)/C=C\C(=O)O [METHYSERGIDE MALEATE],Compound metabolized

# Assay: The drug is tested on Parabacteroides merdae strain: ATCC43184 for biotransformation. The drug concentrations were measured before and after a 12-h incubation by liquid-chromatography-coupled mass spectrometry (LC–MS)
# Conditions: 2 µM
row,Structure (SMILES),Bacterial Biotransformation
1,CC(=O)Nc1ccc(OC(C)=O)cc1 [DIACETAMATE],Compound metabolized
2,CCN(CC)CCOCCOC(=O)C1(c2ccccc2)CCCC1.O=C(O)CC(O)(CC(=O)O)C(=O)O [CARBETAPENTANE CITRATE],Compound metabolized
3,CC[C@@H](CO)NC(=O)[C@@H]1C=C2c3cccc4c3c(cn4C)C[C@H]2N(C)C1.O=C(O)/C=C\C(=O)O [METHYSERGIDE MALEATE],Compound metabolized

# Assay: The drug is tested on Anaerococcus hydrogenalis strain: DSM7454 for biotransformation. The drug concentrations were measured before and after a 12-h incubation by liquid-chromatography-coupled mass spectrometry (LC–MS)
# Conditions: 2 µM
row,Structure (SMILES),Bacterial Biotransformation
1,CC(=O)Nc1ccc(OC(C)=O)cc1 [DIACETAMATE],Compound metabolized
2,CCN(CC)CCOCCOC(=O)C1(c2ccccc2)CCCC1.O=C(O)CC(O)(CC(=O)O)C(=O)O [CARBETAPENTANE CITRATE],Compound metabolized
3,CC[C@@H](CO)NC(=O)[C@@H]1C=C2c3cccc4c3c(cn4C)C[C@H]2N(C)C1.O=C(O)/C=C\C(=O)O [METHYSERGIDE MALEATE],Compound metabolized

# Assay: The drug is tested on Anaerotruncus colihominis strain: DSM17241 for biotransformation. The drug concentrations were measured before and after a 12-h incubation by liquid-chromatography-coupled mass spectrometry (LC–MS)
# Conditions: 2 µM
row,Structure (SMILES),Bacterial Biotransformation
1,CC(=O)Nc1ccc(OC(C)=O)cc1 [DIACETAMATE],Compound metabolized
2,CCN(CC)CCOCCOC(=O)C1(c2ccccc2)CCCC1.O=C(O)CC(O)(CC(=O)O)C(=O)O [CARBETAPENTANE CITRATE],Compound metabolized
3,CC[C@@H](CO)NC(=O)[C@@H]1C=C2c3cccc4c3c(cn4C)C[C@H]2N(C)C1.O=C(O)/C=C\C(=O)O [METHYSERGIDE MALEATE],Compound metabolized

# Assay: The drug is tested on Clostridium ramosum strain: DSM1402 for biotransformation. The drug concentrations were measured before and after a 12-h incubation by liquid-chromatography-coupled mass spectrometry (LC–MS)
# Conditions: thomasclavelia ramosa, 2 µM
row,Structure (SMILES),Bacterial Biotransformation
1,CC(=O)Nc1ccc(OC(C)=O)cc1 [DIACETAMATE],Compound metabolized
2,CCN(CC)CCOCCOC(=O)C1(c2ccccc2)CCCC1.O=C(O)CC(O)(CC(=O)O)C(=O)O [CARBETAPENTANE CITRATE],Compound metabolized
3,CC[C@@H](CO)NC(=O)[C@@H]1C=C2c3cccc4c3c(cn4C)C[C@H]2N(C)C1.O=C(O)/C=C\C(=O)O [METHYSERGIDE MALEATE],Compound metabolized

# Assay: The drug is tested on Enterococcus faecalis strain: V583 for biotransformation. The drug concentrations were measured before and after a 12-h incubation by liquid-chromatography-coupled mass spectrometry (LC–MS)
# Conditions: 2 µM
row,Structure (SMILES),Bacterial Biotransformation
1,CC(=O)Nc1ccc(OC(C)=O)cc1 [DIACETAMATE],Compound metabolized
2,CCN(CC)CCOCCOC(=O)C1(c2ccccc2)CCCC1.O=C(O)CC(O)(CC(=O)O)C(=O)O [CARBETAPENTANE CITRATE],Compound metabolized
3,CC[C@@H](CO)NC(=O)[C@@H]1C=C2c3cccc4c3c(cn4C)C[C@H]2N(C)C1.O=C(O)/C=C\C(=O)O [METHYSERGIDE MALEATE],Compound metabolized

# Assay: The drug is tested on Eubacterium rectale strain: ATCC33656 for biotransformation. The drug concentrations were measured before and after a 12-h incubation by liquid-chromatography-coupled mass spectrometry (LC–MS)
# Conditions: agathobacter rectalis, 2 µM
row,Structure (SMILES),Bacterial Biotransformation
1,CC(=O)Nc1ccc(OC(C)=O)cc1 [DIACETAMATE],Compound metabolized
2,CCN(CC)CCOCCOC(=O)C1(c2ccccc2)CCCC1.O=C(O)CC(O)(CC(=O)O)C(=O)O [CARBETAPENTANE CITRATE],Compound NOT metabolized
3,CC[C@@H](CO)NC(=O)[C@@H]1C=C2c3cccc4c3c(cn4C)C[C@H]2N(C)C1.O=C(O)/C=C\C(=O)O [METHYSERGIDE MALEATE],Compound metabolized

# Assay: The drug is tested on Ruminococcus gnavus strain: ATCC29149 for biotransformation. The drug concentrations were measured before and after a 12-h incubation by liquid-chromatography-coupled mass spectrometry (LC–MS)
# Conditions: mediterraneibacter gnavus, 2 µM
row,Structure (SMILES),Bacterial Biotransformation
1,CC(=O)Nc1ccc(OC(C)=O)cc1 [DIACETAMATE],Compound metabolized
2,CCN(CC)CCOCCOC(=O)C1(c2ccccc2)CCCC1.O=C(O)CC(O)(CC(=O)O)C(=O)O [CARBETAPENTANE CITRATE],Compound metabolized
3,CC[C@@H](CO)NC(=O)[C@@H]1C=C2c3cccc4c3c(cn4C)C[C@H]2N(C)C1.O=C(O)/C=C\C(=O)O [METHYSERGIDE MALEATE],Compound metabolized

# Assay: The drug is tested on Ruminococcus torques strain: ATCC27756 for biotransformation. The drug concentrations were measured before and after a 12-h incubation by liquid-chromatography-coupled mass spectrometry (LC–MS)
# Format: ADME
# Set-up: dose 2 uM, timepoint 0 vs 12 hours
# Conditions: 2 µM
row,Structure (SMILES),Bacterial Biotransformation
1,CC(=O)Nc1ccc(OC(C)=O)cc1 [DIACETAMATE],Compound metabolized
2,CCN(CC)CCOCCOC(=O)C1(c2ccccc2)CCCC1.O=C(O)CC(O)(CC(=O)O)C(=O)O [CARBETAPENTANE CITRATE],Compound metabolized
3,CC[C@@H](CO)NC(=O)[C@@H]1C=C2c3cccc4c3c(cn4C)C[C@H]2N(C)C1.O=C(O)/C=C\C(=O)O [METHYSERGIDE MALEATE],Compound metabolized

# Assay: The drug is tested on Edwardsiella tarda strain: ATCC23685 for biotransformation. The drug concentrations were measured before and after a 12-h incubation by liquid-chromatography-coupled mass spectrometry (LC–MS)
# Conditions: 2 µM
row,Structure (SMILES),Bacterial Biotransformation
1,CC(=O)Nc1ccc(OC(C)=O)cc1 [DIACETAMATE],Compound metabolized
2,CCN(CC)CCOCCOC(=O)C1(c2ccccc2)CCCC1.O=C(O)CC(O)(CC(=O)O)C(=O)O [CARBETAPENTANE CITRATE],Compound metabolized
3,CC[C@@H](CO)NC(=O)[C@@H]1C=C2c3cccc4c3c(cn4C)C[C@H]2N(C)C1.O=C(O)/C=C\C(=O)O [METHYSERGIDE MALEATE],Compound metabolized

# Assay: The drug is tested on Providencia stuartii strain: ATCC25827 for biotransformation. The drug concentrations were measured before and after a 12-h incubation by liquid-chromatography-coupled mass spectrometry (LC–MS)
# Conditions: 2 µM
row,Structure (SMILES),Bacterial Biotransformation
1,CC(=O)Nc1ccc(OC(C)=O)cc1 [DIACETAMATE],Compound metabolized
2,CCN(CC)CCOCCOC(=O)C1(c2ccccc2)CCCC1.O=C(O)CC(O)(CC(=O)O)C(=O)O [CARBETAPENTANE CITRATE],Compound metabolized
3,CC[C@@H](CO)NC(=O)[C@@H]1C=C2c3cccc4c3c(cn4C)C[C@H]2N(C)C1.O=C(O)/C=C\C(=O)O [METHYSERGIDE MALEATE],Compound metabolized

# Conditions: bifidobacterium adolescentis, 12 h, 2 µM
# Description: The drug is tested on Bifidobacterium adolescentis strain: ATCC 15703 for biotransformation. The drug concentrations were measured before and after a 12-h incubation by liquid-chromatography-coupled mass spectrometry (LC–MS)
row,Structure (SMILES),Bacterial Biotransformation
1,CC(=O)Nc1ccc(OC(C)=O)cc1 [DIACETAMATE],Compound metabolized
2,CCN(CC)CCOCCOC(=O)C1(c2ccccc2)CCCC1.O=C(O)CC(O)(CC(=O)O)C(=O)O [CARBETAPENTANE CITRATE],Compound metabolized
3,CC[C@@H](CO)NC(=O)[C@@H]1C=C2c3cccc4c3c(cn4C)C[C@H]2N(C)C1.O=C(O)/C=C\C(=O)O [METHYSERGIDE MALEATE],Compound metabolized

# Conditions: bacteroides fragilis, 12 h, 2 µM
# Description: The drug is tested on Bacteroides fragilis strain: NCTC 9343 for biotransformation. The drug concentrations were measured before and after a 12-h incubation by liquid-chromatography-coupled mass spectrometry (LC–MS)
row,Structure (SMILES),Bacterial Biotransformation
1,CC(=O)Nc1ccc(OC(C)=O)cc1 [DIACETAMATE],Compound metabolized
2,CCN(CC)CCOCCOC(=O)C1(c2ccccc2)CCCC1.O=C(O)CC(O)(CC(=O)O)C(=O)O [CARBETAPENTANE CITRATE],Compound metabolized
3,CC[C@@H](CO)NC(=O)[C@@H]1C=C2c3cccc4c3c(cn4C)C[C@H]2N(C)C1.O=C(O)/C=C\C(=O)O [METHYSERGIDE MALEATE],Compound metabolized

# Conditions: parabacteroides johnsonii, 12 h, 2 µM
# Description: The drug is tested on Parabacteroides johnsonii strain: DSM18315 for biotransformation. The drug concentrations were measured before and after a 12-h incubation by liquid-chromatography-coupled mass spectrometry (LC–MS)
row,Structure (SMILES),Bacterial Biotransformation
1,CC(=O)Nc1ccc(OC(C)=O)cc1 [DIACETAMATE],Compound metabolized
2,CCN(CC)CCOCCOC(=O)C1(c2ccccc2)CCCC1.O=C(O)CC(O)(CC(=O)O)C(=O)O [CARBETAPENTANE CITRATE],Compound metabolized
3,CC[C@@H](CO)NC(=O)[C@@H]1C=C2c3cccc4c3c(cn4C)C[C@H]2N(C)C1.O=C(O)/C=C\C(=O)O [METHYSERGIDE MALEATE],Compound metabolized

# Conditions: limosilactobacillus reuteri cf48-3a, 12 h, 2 µM
# Description: The drug is tested on Lactobacillus reuteri CF48-3A strain: BEI HM-102 for biotransformation. The drug concentrations were measured before and after a 12-h incubation by liquid-chromatography-coupled mass spectrometry (LC–MS)
row,Structure (SMILES),Bacterial Biotransformation
1,CC(=O)Nc1ccc(OC(C)=O)cc1 [DIACETAMATE],Compound metabolized
2,CCN(CC)CCOCCOC(=O)C1(c2ccccc2)CCCC1.O=C(O)CC(O)(CC(=O)O)C(=O)O [CARBETAPENTANE CITRATE],Compound metabolized
3,CC[C@@H](CO)NC(=O)[C@@H]1C=C2c3cccc4c3c(cn4C)C[C@H]2N(C)C1.O=C(O)/C=C\C(=O)O [METHYSERGIDE MALEATE],Compound metabolized
